US10669284B2, “Fused thiazolopyrimidine derivatives as MNKS inhibitors” (LIFEARC, priority 2015, dated 2020)

Assays:
INSRR = INSRR (Homo sapiens, UniProt P14616); assay: Kinase selectivity screen INSRR; details: read-out: % inhibition of INSRR
PRAK = biological target: T1, PRAK (Homo sapiens, UniProt Q8IW41); assay: Kinase selectivity screen PRAK; details: read-out: % inhibition of PRAK
T1 sequence (Q8IW41 1-473): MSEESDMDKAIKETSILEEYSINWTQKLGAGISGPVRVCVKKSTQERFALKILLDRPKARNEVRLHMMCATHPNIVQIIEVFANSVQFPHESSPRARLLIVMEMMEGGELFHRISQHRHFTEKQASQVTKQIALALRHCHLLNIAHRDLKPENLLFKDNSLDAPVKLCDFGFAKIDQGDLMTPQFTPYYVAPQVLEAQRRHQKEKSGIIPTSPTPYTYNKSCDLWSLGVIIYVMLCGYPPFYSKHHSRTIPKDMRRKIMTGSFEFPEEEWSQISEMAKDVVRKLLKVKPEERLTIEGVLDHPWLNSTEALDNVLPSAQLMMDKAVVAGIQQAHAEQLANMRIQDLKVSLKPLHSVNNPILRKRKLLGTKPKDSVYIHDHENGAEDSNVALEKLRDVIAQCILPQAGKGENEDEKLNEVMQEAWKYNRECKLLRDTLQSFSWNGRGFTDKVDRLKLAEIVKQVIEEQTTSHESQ

AKT1 = AKT1 (Homo sapiens, UniProt P31749); assay: Kinase selectivity screen AKT1; details: read-out: % inhibition of AKT1
Chain of AKT1 (P31749 whole entry, species assumed): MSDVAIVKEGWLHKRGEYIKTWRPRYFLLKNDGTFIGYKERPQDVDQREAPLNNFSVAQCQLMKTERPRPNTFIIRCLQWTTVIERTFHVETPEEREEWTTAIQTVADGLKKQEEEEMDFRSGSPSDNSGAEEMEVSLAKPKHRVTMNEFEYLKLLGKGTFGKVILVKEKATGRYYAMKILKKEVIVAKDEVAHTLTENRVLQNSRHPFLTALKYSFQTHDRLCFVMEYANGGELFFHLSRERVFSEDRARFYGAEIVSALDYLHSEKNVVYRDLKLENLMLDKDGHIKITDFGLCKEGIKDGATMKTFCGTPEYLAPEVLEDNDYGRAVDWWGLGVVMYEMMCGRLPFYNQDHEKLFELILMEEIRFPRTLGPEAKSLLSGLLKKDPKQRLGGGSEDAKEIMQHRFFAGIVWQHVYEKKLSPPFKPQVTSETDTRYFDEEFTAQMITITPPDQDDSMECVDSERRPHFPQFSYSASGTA

PIM2 = PIM2 (Homo sapiens, UniProt Q9P1W9); assay: Kinase selectivity screen PIM2; details: read-out: % inhibition of PIM2
Chain of PIM2 (Q9P1W9 whole entry, species assumed): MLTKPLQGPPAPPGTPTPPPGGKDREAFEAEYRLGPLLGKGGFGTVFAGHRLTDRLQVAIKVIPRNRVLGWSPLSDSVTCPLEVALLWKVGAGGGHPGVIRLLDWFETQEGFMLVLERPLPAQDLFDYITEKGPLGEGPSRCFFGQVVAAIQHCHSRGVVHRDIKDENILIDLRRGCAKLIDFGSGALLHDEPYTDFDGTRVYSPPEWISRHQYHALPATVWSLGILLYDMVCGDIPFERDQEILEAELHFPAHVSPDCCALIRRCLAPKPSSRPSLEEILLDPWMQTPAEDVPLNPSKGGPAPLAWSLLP

EGFR = EGFR (Homo sapiens, UniProt P00533); assay: Kinase selectivity screen EGFR; details: read-out: % inhibition of EGFR
PTK6 = PTK6 (Homo sapiens, UniProt Q13882); assay: Kinase selectivity screen PTK6; details: read-out: % inhibition of PTK6
Chain of PTK6 (Q13882 whole entry, species assumed): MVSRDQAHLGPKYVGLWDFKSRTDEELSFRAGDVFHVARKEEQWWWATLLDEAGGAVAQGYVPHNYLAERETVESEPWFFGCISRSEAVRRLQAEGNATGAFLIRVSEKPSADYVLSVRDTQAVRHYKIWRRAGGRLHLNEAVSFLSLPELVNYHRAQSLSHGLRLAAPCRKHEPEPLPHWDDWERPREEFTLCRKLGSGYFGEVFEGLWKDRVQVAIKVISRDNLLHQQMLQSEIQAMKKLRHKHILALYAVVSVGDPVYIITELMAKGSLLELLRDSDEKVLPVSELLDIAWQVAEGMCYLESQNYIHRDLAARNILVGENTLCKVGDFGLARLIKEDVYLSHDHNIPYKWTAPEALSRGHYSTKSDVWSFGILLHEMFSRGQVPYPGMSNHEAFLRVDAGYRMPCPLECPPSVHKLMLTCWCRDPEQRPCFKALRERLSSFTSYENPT

FER = FER (Homo sapiens, UniProt P16591); assay: Kinase selectivity screen FER; details: read-out: % inhibition of FER
Chain of FER (P16591 whole entry, species assumed): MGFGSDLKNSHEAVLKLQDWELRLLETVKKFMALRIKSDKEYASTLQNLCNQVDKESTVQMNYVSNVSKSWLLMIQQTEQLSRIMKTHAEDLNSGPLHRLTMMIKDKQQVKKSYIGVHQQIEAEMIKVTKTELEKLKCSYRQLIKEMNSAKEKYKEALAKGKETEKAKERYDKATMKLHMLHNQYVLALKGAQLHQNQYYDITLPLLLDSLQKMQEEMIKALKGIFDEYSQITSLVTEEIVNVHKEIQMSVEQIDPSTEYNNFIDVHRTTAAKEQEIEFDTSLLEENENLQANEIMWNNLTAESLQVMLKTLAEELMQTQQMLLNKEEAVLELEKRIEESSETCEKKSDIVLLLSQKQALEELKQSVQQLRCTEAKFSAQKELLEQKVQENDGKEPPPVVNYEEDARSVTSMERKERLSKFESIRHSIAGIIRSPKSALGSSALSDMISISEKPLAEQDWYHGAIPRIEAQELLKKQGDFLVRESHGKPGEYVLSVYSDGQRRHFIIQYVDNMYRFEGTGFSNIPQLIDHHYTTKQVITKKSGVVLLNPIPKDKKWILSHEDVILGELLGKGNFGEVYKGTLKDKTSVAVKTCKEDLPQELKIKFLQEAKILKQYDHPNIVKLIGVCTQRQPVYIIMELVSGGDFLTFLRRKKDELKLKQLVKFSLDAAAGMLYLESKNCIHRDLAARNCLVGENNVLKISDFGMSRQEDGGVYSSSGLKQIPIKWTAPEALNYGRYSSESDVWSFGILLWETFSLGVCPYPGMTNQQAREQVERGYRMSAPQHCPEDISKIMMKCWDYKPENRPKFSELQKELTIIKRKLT

YES1 = YES1 (Homo sapiens, UniProt P07947); assay: Kinase selectivity screen YES1; details: read-out: % inhibition of YES1
Chain of YES1 (P07947 whole entry, species assumed): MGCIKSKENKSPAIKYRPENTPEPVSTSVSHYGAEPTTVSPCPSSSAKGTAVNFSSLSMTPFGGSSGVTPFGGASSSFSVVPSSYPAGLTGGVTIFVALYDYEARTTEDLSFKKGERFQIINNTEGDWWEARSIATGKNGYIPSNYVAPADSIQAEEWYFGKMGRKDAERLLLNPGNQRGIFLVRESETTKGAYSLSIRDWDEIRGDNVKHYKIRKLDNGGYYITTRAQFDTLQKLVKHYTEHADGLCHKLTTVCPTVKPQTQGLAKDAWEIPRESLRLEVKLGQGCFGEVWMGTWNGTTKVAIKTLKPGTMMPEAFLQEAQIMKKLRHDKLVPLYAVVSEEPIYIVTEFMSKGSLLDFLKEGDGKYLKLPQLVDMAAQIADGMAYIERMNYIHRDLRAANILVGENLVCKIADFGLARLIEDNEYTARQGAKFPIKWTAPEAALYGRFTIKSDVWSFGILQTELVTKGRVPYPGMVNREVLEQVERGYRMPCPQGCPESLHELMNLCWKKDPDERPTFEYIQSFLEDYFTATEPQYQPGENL

FGFR1 = FGFR1 (Homo sapiens, UniProt P11362); assay: Kinase selectivity screen FGFR1; details: read-out: % inhibition of FGFR1
Chain of FGFR1 (P11362 22-822, species assumed): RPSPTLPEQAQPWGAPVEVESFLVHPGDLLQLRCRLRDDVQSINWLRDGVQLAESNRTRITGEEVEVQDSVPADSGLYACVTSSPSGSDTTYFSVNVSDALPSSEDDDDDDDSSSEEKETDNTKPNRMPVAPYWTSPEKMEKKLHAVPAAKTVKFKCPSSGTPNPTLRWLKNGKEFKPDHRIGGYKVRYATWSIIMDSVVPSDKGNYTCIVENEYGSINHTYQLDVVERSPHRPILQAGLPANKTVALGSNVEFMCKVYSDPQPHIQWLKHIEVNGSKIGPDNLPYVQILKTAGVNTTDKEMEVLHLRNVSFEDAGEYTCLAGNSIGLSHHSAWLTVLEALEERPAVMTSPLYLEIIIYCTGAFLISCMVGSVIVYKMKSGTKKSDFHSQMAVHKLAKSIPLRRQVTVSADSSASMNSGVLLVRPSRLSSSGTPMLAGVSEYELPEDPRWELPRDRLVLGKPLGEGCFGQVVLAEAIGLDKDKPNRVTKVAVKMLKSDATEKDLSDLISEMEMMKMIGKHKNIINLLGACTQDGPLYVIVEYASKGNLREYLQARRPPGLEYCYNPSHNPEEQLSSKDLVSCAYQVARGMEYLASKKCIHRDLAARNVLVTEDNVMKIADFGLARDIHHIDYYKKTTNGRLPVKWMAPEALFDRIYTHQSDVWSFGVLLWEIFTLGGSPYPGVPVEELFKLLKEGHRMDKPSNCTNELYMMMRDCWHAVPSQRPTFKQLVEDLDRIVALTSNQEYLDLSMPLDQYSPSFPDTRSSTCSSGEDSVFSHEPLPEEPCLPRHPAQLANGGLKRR

ALK = ALK (Homo sapiens, UniProt Q9UM73); assay: Kinase selectivity screen ALK; details: read-out: % inhibition of ALK
PAK4 = PAK4 (Homo sapiens, UniProt O96013); assay: Kinase selectivity screen PAK4; details: read-out: % inhibition of PAK4
STK11 = biological target: T2, STK11 (Homo sapiens, UniProt Q15831); assay: Kinase selectivity screen STK11; details: read-out: % inhibition of STK11
T2 sequence (Q15831 1-433): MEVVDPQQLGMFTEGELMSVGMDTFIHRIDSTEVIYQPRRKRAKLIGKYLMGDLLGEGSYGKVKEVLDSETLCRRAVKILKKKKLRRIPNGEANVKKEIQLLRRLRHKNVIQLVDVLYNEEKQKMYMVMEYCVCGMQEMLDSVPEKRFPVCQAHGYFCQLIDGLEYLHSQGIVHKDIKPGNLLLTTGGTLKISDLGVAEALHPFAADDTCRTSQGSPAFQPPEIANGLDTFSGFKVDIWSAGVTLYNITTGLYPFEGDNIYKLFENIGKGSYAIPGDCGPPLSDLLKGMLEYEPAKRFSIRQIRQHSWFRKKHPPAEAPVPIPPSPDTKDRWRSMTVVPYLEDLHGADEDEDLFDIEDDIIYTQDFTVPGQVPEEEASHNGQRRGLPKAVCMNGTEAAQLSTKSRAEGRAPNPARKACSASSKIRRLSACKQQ
T2 sequence (Q7RTN6 1-431 partner): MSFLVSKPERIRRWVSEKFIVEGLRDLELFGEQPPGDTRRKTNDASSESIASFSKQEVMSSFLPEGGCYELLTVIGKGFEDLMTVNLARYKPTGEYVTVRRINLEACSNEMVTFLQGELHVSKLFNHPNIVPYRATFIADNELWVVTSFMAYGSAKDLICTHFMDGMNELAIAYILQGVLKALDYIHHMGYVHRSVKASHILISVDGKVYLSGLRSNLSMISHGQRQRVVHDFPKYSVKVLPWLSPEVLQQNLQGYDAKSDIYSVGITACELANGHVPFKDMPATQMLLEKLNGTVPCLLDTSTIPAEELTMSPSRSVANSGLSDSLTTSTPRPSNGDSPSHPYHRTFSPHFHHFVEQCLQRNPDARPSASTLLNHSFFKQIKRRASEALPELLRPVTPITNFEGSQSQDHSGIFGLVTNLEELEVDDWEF
T2 sequence (Q9Y376 1-341 partner): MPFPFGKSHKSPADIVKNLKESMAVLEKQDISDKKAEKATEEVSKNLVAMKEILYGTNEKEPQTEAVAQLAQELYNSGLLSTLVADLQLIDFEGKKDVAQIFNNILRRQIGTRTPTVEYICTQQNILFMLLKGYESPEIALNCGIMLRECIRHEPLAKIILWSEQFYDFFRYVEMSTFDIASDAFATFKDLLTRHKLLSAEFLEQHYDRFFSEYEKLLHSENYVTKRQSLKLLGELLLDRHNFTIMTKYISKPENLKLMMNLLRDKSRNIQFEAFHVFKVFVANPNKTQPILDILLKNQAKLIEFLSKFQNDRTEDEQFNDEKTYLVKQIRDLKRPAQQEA

PAK7 = PAK7 (Homo sapiens, UniProt Q9P286); assay: Kinase selectivity screen PAK7; details: read-out: % inhibition of PAK7
CaMK1 = CaMK1 (Homo sapiens, UniProt Q14012); assay: Kinase selectivity screen CaMK1; details: read-out: % inhibition of CaMK1
Chain of CaMK1 (Q14012 whole entry): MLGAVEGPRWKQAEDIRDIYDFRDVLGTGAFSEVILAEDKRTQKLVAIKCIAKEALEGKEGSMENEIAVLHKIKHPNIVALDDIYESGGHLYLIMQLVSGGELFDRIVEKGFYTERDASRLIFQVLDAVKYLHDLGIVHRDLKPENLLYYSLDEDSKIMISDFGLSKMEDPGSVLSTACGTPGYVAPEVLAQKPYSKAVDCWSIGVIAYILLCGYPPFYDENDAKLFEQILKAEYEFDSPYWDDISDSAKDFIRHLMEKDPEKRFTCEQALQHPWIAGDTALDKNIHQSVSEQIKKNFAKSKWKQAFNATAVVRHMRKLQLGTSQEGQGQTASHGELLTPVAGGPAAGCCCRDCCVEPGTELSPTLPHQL

Chain of INSRR (P14616 27-1297, species assumed): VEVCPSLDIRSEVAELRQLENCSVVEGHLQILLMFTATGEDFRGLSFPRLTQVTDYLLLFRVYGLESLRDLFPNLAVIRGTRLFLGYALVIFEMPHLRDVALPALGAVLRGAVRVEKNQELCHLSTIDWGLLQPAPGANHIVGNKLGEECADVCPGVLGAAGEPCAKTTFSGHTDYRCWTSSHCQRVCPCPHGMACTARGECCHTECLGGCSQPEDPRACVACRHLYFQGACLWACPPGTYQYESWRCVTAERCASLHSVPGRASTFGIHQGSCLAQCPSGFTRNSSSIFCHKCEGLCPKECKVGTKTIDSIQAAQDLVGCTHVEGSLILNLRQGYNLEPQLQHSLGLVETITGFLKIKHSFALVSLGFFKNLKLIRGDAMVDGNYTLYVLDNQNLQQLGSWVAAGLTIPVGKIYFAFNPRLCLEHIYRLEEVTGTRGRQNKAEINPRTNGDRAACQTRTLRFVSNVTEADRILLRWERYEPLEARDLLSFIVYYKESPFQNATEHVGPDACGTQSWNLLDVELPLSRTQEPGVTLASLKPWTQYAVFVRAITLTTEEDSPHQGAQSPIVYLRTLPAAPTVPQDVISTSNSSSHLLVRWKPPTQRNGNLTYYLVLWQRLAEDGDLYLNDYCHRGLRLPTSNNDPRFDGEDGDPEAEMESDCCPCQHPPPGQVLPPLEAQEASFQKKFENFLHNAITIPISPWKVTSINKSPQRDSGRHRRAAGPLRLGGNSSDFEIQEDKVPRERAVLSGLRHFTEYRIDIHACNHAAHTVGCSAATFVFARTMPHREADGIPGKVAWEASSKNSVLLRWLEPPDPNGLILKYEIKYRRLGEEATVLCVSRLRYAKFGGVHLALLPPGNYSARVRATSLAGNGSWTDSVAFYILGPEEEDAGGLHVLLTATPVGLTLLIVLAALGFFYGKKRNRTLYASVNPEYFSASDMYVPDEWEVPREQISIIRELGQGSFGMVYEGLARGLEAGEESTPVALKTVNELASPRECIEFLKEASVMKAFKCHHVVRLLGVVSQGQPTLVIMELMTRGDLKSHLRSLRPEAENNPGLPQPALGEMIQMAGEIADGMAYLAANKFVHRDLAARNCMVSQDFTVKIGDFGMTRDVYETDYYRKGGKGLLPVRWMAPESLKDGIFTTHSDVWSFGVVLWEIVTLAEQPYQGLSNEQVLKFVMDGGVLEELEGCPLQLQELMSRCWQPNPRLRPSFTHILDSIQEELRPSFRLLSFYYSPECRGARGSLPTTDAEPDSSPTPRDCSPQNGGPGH

With `CC(C)Oc1cc(F)ccc1Nc1ncnc2sc(C(=O)NCC3CCNCC3)nc12` [Example 10, 7-(4-fluoro-2-isopropoxy-anilino)-N-(4-piperidylmethyl)thiazolo[5,4-d]pyrimidine-2-carboxamide] the inhibition at 1 µM (INSRR) was 10%, the inhibition at 1 µM (PRAK) was 0% and the inhibition at 1 µM (AKT1) was 0%. It also gave an inhibition at 1 µM (PIM2) of 7%, an inhibition at 1 µM (EGFR) of 0% and an inhibition at 1 µM (PTK6) of 0%. It also gave an inhibition at 1 µM (FER) of 4%, an inhibition at 1 µM (YES1) of 4% and an inhibition at 1 µM (FGFR1) of 1%. It also gave an inhibition at 1 µM (ALK) of 10%, an inhibition at 1 µM (PAK4) of 15% and an inhibition at 1 µM (STK11) of 21%. For the same molecule, the inhibition at 1 µM (PAK7) was 1% and the inhibition at 1 µM (CaMK1) was 11%.

Work on `O=C(NCC1CCNCC1)c1nc2c(N3CCc4cc(F)ccc43)ncnc2s1` [Example 58, 7-(5-fluoroindolin-1-yl)-N-(4-piperidylmethyl)thiazolo[5,4-d]pyrimidine-2-carboxamide] yielded an inhibition at 1 µM (INSRR) of 13%, an inhibition at 1 µM (PRAK) of 0% and an inhibition at 1 µM (AKT1) of 0%. The inhibition at 1 µM (PIM2) was 13%, the inhibition at 1 µM (EGFR) was 0% and the inhibition at 1 µM (PTK6) was 0%. For the same molecule, the inhibition at 1 µM (FER) was 0%, the inhibition at 1 µM (YES1) was 14% and the inhibition at 1 µM (FGFR1) was 0%. For the same molecule, the inhibition at 1 µM (ALK) was 7%, the inhibition at 1 µM (PAK4) was 0% and the inhibition at 1 µM (STK11) was 7%. For the same molecule, the inhibition at 1 µM (PAK7) was 0% and the inhibition at 1 µM (CaMK1) was 11%.

For `CN(C)CCCNC(=O)c1nc2c(N3CCc4cc(F)ccc43)ncnc2s1` [Example 64, N-[3-(dimethylamino)propyl]-7-(5-fluoroindolin-1-yl)thiazolo[5,4-d]pyrimidine-2-carboxamide], the inhibition at 1 µM (INSRR) was 0%, the inhibition at 1 µM (PRAK) was 0% and the inhibition at 1 µM (AKT1) was 0%. For the same molecule, the inhibition at 1 µM (PIM2) was 42%, the inhibition at 1 µM (EGFR) was 5% and the inhibition at 1 µM (PTK6) was 4%. The inhibition at 1 µM (FER) was 0%, the inhibition at 1 µM (YES1) was 4% and the inhibition at 1 µM (FGFR1) was 2%. It also gave an inhibition at 1 µM (ALK) of 3%, an inhibition at 1 µM (PAK4) of 4% and an inhibition at 1 µM (STK11) of 10%. For the same molecule, the inhibition at 1 µM (PAK7) was 0% and the inhibition at 1 µM (CaMK1) was 18%.
